Key:
[1] = tested on: blackgrass; assay: Test Example 4: herbicidal effect by soil treatment (Table 19, symbol J); format: in vivo, blackgrass (Alopecurus myosuroides); settings: amount of applied herbicide 320 g/ha
Summary of the method: (§1)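 Herbicidal effect was rated 3 weeks after treatment, using the scoring criteria of an earlier test. The compound, formulated as an emulsion and diluted in water to a set herbicide amount, had been sprayed uniformly on soil over freshly sown seeds. Growth took place in a greenhouse at 25° C. to 30° C.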

[2] = tested on: blackgrass; assay: Test Example 5: herbicidal effect by foliage application, plastic box (Table 20, symbol J); format: in vivo, blackgrass (Alopecurus myosuroides); settings: foliage application, 320 g/ha
Summary of the method: (§2)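 Foliar spray test: emulsion formulation diluted in water to a set application rate, sprayed onto 14-day-old plants raised in diluvial soil at 25° C to 30° C under glass. Both herbicidal effect and crop effect rated visually three weeks later.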

[3] = tested on: velvetleaf; assay: Test Example 4: herbicidal effect by soil treatment (Table 19, symbol M); format: in vivo, velvetleaf (Abutilon theophrasti); settings: amount of applied herbicide 320 g/ha
Summary of the method: as §1

[4] = tested on: rice flat sedge; assay: Test Example 3: herbicidal effect by foliage application, Wagner pot (Table 18, symbol E); format: in vivo, rice flat sedge (Cyperus iria)
Summary of the method: (§3)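 Plants were sown in alluvial soil held under 0.1–0.5 cm standing water and grown 14 days in a greenhouse at 25–30 °C. An emulsifiable formulation, water-diluted to the set dose, was then sprayed onto the foliage, and effects were scored three weeks later using previously defined criteria.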

[5] = tested on: false cleavers; assay: Test Example 4: herbicidal effect by soil treatment (Table 19, symbol Q); format: in vivo, false cleavers (Galium spurium); settings: amount of applied herbicide 320 g/ha
Summary of the method: as §1

[6] = tested on: lambsquarters; assay: Test Example 4: herbicidal effect by soil treatment (Table 19, symbol O); format: in vivo, lambsquarters (Chenopodium album); settings: amount of applied herbicide 320 g/ha
Summary of the method: as §1

[7] = tested on: Italian ryegrass; assay: Test Example 4: herbicidal effect by soil treatment (Table 19, symbol K); format: in vivo, Italian ryegrass (Lolium multiflorum); settings: amount of applied herbicide 320 g/ha
Summary of the method: as §1

[8] = tested on: southern crabgrass; assay: Test Example 5: herbicidal effect by foliage application, plastic box (Table 20, symbol F); format: in vivo, southern crabgrass (Digitaria ciliaris); settings: foliage application, 320 g/ha
Summary of the method: as §2

[9] = tested on: redroot pigweed; assay: Test Example 5: herbicidal effect by foliage application, plastic box (Table 20, symbol N); format: in vivo, redroot pigweed (Amaranthus retroflexus); settings: foliage application, 320 g/ha
Summary of the method: as §2

[10] = tested on: windgrass; assay: Test Example 4: herbicidal effect by soil treatment (Table 19, symbol L); format: in vivo, windgrass (Apera spica-venti); settings: amount of applied herbicide 320 g/ha
Summary of the method: as §1

[11] = tested on: barnyard grass; assay: Test Example 3: herbicidal effect by foliage application, Wagner pot (Table 18, symbol H); format: in vivo, barnyard grass (Echinochloa crus-galli)
Summary of the method: as §3

[12] = tested on: false cleavers; assay: Test Example 5: herbicidal effect by foliage application, plastic box (Table 20, symbol Q); format: in vivo, false cleavers (Galium spurium); settings: foliage application, 320 g/ha
Summary of the method: as §2

[13] = tested on: wild oat; assay: Test Example 4: herbicidal effect by soil treatment (Table 19, symbol I); format: in vivo, wild oat (Avena fatua); settings: amount of applied herbicide 320 g/ha
Summary of the method: as §1

[14] = tested on: persian speedwell; assay: Test Example 4: herbicidal effect by soil treatment (Table 19, symbol R); format: in vivo, Persian speedwell (Veronica persica); settings: amount of applied herbicide 320 g/ha
Summary of the method: as §1

[15] = tested on: barnyard grass; assay: Test Example 5: herbicidal effect by foliage application, plastic box (Table 20, symbol H); format: in vivo, barnyard grass (Echinochloa crus-galli); settings: foliage application, 320 g/ha
Summary of the method: as §2

[16] = tested on: redroot pigweed; assay: Test Example 4: herbicidal effect by soil treatment (Table 19, symbol N); format: in vivo, redroot pigweed (Amaranthus retroflexus); settings: amount of applied herbicide 320 g/ha
Summary of the method: as §1

[17] = tested on: Chinese sprangletop; assay: Test Example 3: herbicidal effect by foliage application, Wagner pot (Table 18, symbol D); format: in vivo, chinese sprangletop (Leptochloa chinensis)
Summary of the method: as §3

[18] = tested on: windgrass; assay: Test Example 5: herbicidal effect by foliage application, plastic box (Table 20, symbol L); format: in vivo, windgrass (Apera spica-venti); settings: foliage application, 320 g/ha
Summary of the method: as §2

[19] = tested on: velvetleaf; assay: Test Example 5: herbicidal effect by foliage application, plastic box (Table 20, symbol M); format: in vivo, velvetleaf (Abutilon theophrasti); settings: foliage application, 320 g/ha
Summary of the method: as §2

[20] = tested on: wild oat; assay: Test Example 5: herbicidal effect by foliage application, plastic box (Table 20, symbol I); format: in vivo, wild oat (Avena fatua); settings: foliage application, 320 g/ha
Summary of the method: as §2

[21] = tested on: chickweed; assay: Test Example 5: herbicidal effect by foliage application, plastic box (Table 20, symbol P); format: in vivo, common chickweed (Stellaria media); settings: foliage application, 320 g/ha
Summary of the method: as §2

[22] = tested on: green foxtail; assay: Test Example 4: herbicidal effect by soil treatment (Table 19, symbol G); format: in vivo, green foxtail (Setaria viridis); settings: amount of applied herbicide 320 g/ha
Summary of the method: as §1

[23] = tested on: lambsquarters; assay: Test Example 5: herbicidal effect by foliage application, plastic box (Table 20, symbol O); format: in vivo, lambsquarters (Chenopodium album); settings: foliage application, 320 g/ha
Summary of the method: as §2

[24] = tested on: southern crabgrass; assay: Test Example 4: herbicidal effect by soil treatment (Table 19, symbol F); format: in vivo, southern crabgrass (Digitaria ciliaris); settings: amount of applied herbicide 320 g/ha
Summary of the method: as §1

[25] = tested on: Italian ryegrass; assay: Test Example 5: herbicidal effect by foliage application, plastic box (Table 20, symbol K); format: in vivo, Italian ryegrass (Lolium multiflorum); settings: foliage application, 320 g/ha
Summary of the method: as §2

[26] = tested on: green foxtail; assay: Test Example 5: herbicidal effect by foliage application, plastic box (Table 20, symbol G); format: in vivo, green foxtail (Setaria viridis); settings: foliage application, 320 g/ha
Summary of the method: as §2

[27] = tested on: barnyard grass; assay: Test Example 4: herbicidal effect by soil treatment (Table 19, symbol H); format: in vivo, barnyard grass (Echinochloa crus-galli); settings: amount of applied herbicide 320 g/ha
Summary of the method: as §1

[28] = tested on: persian speedwell; assay: Test Example 5: herbicidal effect by foliage application, plastic box (Table 20, symbol R); format: in vivo, Persian speedwell (Veronica persica); settings: foliage application, 320 g/ha
Summary of the method: as §2

[29] = tested on: chickweed; assay: Test Example 4: herbicidal effect by soil treatment (Table 19, symbol P); format: in vivo, common chickweed (Stellaria media); settings: amount of applied herbicide 320 g/ha
Summary of the method: as §1

[30] = evaluated three weeks after application
[31] = amount of applied herbicide 320 g/ha

`CCCC(=O)Oc1c(C)nn(C)c(=O)c1-c1c(-c2cc(F)ccc2OC)sc2ccc(C)cc12` [2-151] was tested, and the “J: blackgrass, herbicidal effect rating” value [1] was 0 (Herbicidal rate of 5% or less (almost no effect)), the “herbicidal effect on J: blackgrass (criteria 0-5)” value [2, 30] was 0 (Herbicidal rate of 5% or less (almost no effect)) and the “M: velvetleaf, herbicidal effect rating” value [3] was 0 (Herbicidal rate of 5% or less (almost no effect)). For the same compound, the “herbicidal effect on E: rice flat sedge” value [4, 31] was 3 (Herbicidal rate of 40% or more and less than 70%), the “Q: false cleavers, herbicidal effect rating” value [5] was 0 (Herbicidal rate of 5% or less (almost no effect)) and the “O: lambsquarters, herbicidal effect rating” value [6] was 4 (Herbicidal rate of 70% or more and less than 90%). The “K: Italian ryegrass, herbicidal effect rating” value [7] was 0 (Herbicidal rate of 5% or less (almost no effect)), the “herbicidal effect on F: southern crabgrass (criteria 0-5)” value [8, 30] was 0 (Herbicidal rate of 5% or less (almost no effect)) and the “herbicidal effect on N: redroot pigweed (criteria 0-5)” value [9, 30] was 3 (Herbicidal rate of 40% or more and less than 70%). The “L: windgrass, herbicidal effect rating” value [10] was 0 (Herbicidal rate of 5% or less (almost no effect)), the “herbicidal effect on H: barnyard grass” value [11, 31] was 3 (Herbicidal rate of 40% or more and less than 70%) and the “herbicidal effect on Q: false cleavers (criteria 0-5)” value [12, 30] was 2 (Herbicidal rate of 20% or more and less than 40%). For the same compound, the “I: wild oat, herbicidal effect rating” value [13] was 0 (Herbicidal rate of 5% or less (almost no effect)), the “R: persian speedwell, herbicidal effect rating” value [14] was 3 (Herbicidal rate of 40% or more and less than 70%) and the “herbicidal effect on H: barnyard grass (criteria 0-5)” value [15, 30] was 0 (Herbicidal rate of 5% or less (almost no effect)). For the same compound, the “N: redroot pigweed, herbicidal effect rating” value [16] was 4 (Herbicidal rate of 70% or more and less than 90%), the “herbicidal effect on D: Chinese sprangletop” value [17, 31] was 0 (Herbicidal rate of 5% or less (almost no effect)) and the “herbicidal effect on L: windgrass (criteria 0-5)” value [18, 30] was 0 (Herbicidal rate of 5% or less (almost no effect)). The “herbicidal effect on M: velvetleaf (criteria 0-5)” value [19, 30] was 1 (Herbicidal rate of 5% or more and less than 20%), the “herbicidal effect on I: wild oat (criteria 0-5)” value [20, 30] was 0 (Herbicidal rate of 5% or less (almost no effect)) and the “herbicidal effect on P: chickweed (criteria 0-5)” value [21, 30] was 4 (Herbicidal rate of 70% or more and less than 90%). For the same compound, the “G: green foxtail, herbicidal effect rating” value [22] was 0 (Herbicidal rate of 5% or less (almost no effect)), the “herbicidal effect on O: lambsquarters (criteria 0-5)” value [23, 30] was 2 (Herbicidal rate of 20% or more and less than 40%) and the “F: southern crabgrass, herbicidal effect rating” value [24] was 0 (Herbicidal rate of 5% or less (almost no effect)). For the same compound, the “herbicidal effect on K: Italian ryegrass (criteria 0-5)” value [25, 30] was 0 (Herbicidal rate of 5% or less (almost no effect)), the “herbicidal effect on G: green foxtail (criteria 0-5)” value [26, 30] was 0 (Herbicidal rate of 5% or less (almost no effect)) and the “H: barnyard grass, herbicidal effect rating” value [27] was 0 (Herbicidal rate of 5% or less (almost no effect)). For the same compound, the “herbicidal effect on R: persian speedwell (criteria 0-5)” value [28, 30] was 4 (Herbicidal rate of 70% or more and less than 90%) and the “P: chickweed, herbicidal effect rating” value [29] was 1 (Herbicidal rate of 5% or more and less than 20%).
In the case of `COc1c(F)cccc1-c1sc2ccccc2c1-c1c(O)c(C)nn(C)c1=O` [1-054], the “herbicidal effect rating, J: blackgrass” value [1] is reported as 3 (Herbicidal rate of 40% or more and less than 70%), the “herbicidal effect grade, J: blackgrass” value ([2]; three weeks after application) is reported as 0 (Herbicidal rate of 5% or less (almost no effect)) and the “herbicidal effect rating, M: velvetleaf” value [3] is reported as 0 (Herbicidal rate of 5% or less (almost no effect)). For the same compound, the “herbicidal effect on E (rice flat sedge), rating 0-5” value ([4]; 320 g/ha) was 4 (Herbicidal rate of 70% or more and less than 90%), the “herbicidal effect rating, Q: false cleavers” value [5] was 0 (Herbicidal rate of 5% or less (almost no effect)) and the “herbicidal effect rating, O: lambsquarters” value [6] was 0 (Herbicidal rate of 5% or less (almost no effect)). For the same compound, the “herbicidal effect rating, K: Italian ryegrass” value [7] was 3 (Herbicidal rate of 40% or more and less than 70%), the “herbicidal effect grade, F: southern crabgrass” value ([8]; three weeks after application) was 2 (Herbicidal rate of 20% or more and less than 40%) and the “herbicidal effect grade, N: redroot pigweed” value ([9]; three weeks after application) was 5 (Herbicidal rate of 90% or more (almost completely withered)). For the same compound, the “herbicidal effect rating, L: windgrass” value [10] was 0 (Herbicidal rate of 5% or less (almost no effect)), the “herbicidal effect on H (barnyard grass), rating 0-5” value ([11]; 320 g/ha) was 5 (Herbicidal rate of 90% or more (almost completely withered)) and the “herbicidal effect grade, Q: false cleavers” value ([12]; three weeks after application) was 4 (Herbicidal rate of 70% or more and less than 90%). For the same compound, the “herbicidal effect rating, I: wild oat” value [13] was 0 (Herbicidal rate of 5% or less (almost no effect)), the “herbicidal effect rating, R: persian speedwell” value [14] was 0 (Herbicidal rate of 5% or less (almost no effect)) and the “herbicidal effect grade, H: barnyard grass” value ([15]; three weeks after application) was 3 (Herbicidal rate of 40% or more and less than 70%). The “herbicidal effect rating, N: redroot pigweed” value [16] was 0 (Herbicidal rate of 5% or less (almost no effect)), the “herbicidal effect on D (Chinese sprangletop), rating 0-5” value ([17]; 320 g/ha) was 3 (Herbicidal rate of 40% or more and less than 70%) and the “herbicidal effect grade, L: windgrass” value ([18]; three weeks after application) was 0 (Herbicidal rate of 5% or less (almost no effect)). For the same compound, the “herbicidal effect grade, M: velvetleaf” value ([19]; three weeks after application) was 5 (Herbicidal rate of 90% or more (almost completely withered)), the “herbicidal effect grade, I: wild oat” value ([20]; three weeks after application) was 3 (Herbicidal rate of 40% or more and less than 70%) and the “herbicidal effect grade, P: chickweed” value ([21]; three weeks after application) was 5 (Herbicidal rate of 90% or more (almost completely withered)). For the same compound, the “herbicidal effect rating, G: green foxtail” value [22] was 0 (Herbicidal rate of 5% or less (almost no effect)), the “herbicidal effect grade, O: lambsquarters” value ([23]; three weeks after application) was 5 (Herbicidal rate of 90% or more (almost completely withered)) and the “herbicidal effect rating, F: southern crabgrass” value [24] was 0 (Herbicidal rate of 5% or less (almost no effect)). For the same compound, the “herbicidal effect grade, K: Italian ryegrass” value ([25]; three weeks after application) was 4 (Herbicidal rate of 70% or more and less than 90%), the “herbicidal effect grade, G: green foxtail” value ([26]; three weeks after application) was 4 (Herbicidal rate of 70% or more and less than 90%) and the “herbicidal effect rating, H: barnyard grass” value [27] was 2 (Herbicidal rate of 20% or more and less than 40%). For the same compound, the “herbicidal effect grade, R: persian speedwell” value ([28]; three weeks after application) was 1 (Herbicidal rate of 5% or more and less than 20%) and the “herbicidal effect rating, P: chickweed” value [29] was 0 (Herbicidal rate of 5% or less (almost no effect)).

From US20230085307A1, “PYRIDAZINONE COMPOUND AND HERBICIDE” (NISSAN CHEMICAL CORPORATION, priority 2019, published 2023)
